From patent US20100285959A1, “HERBICIDAL MIXTURES” (priority 2006, published 2010)

Key:
[1] = test system: Pennsylvania smartweed (POLPY); assay: Test 8 field trial, preemergence; format: in vivo, Polygonum pensylvanicum
Source text: (§1) Corn seeds (hybrid ‘Pioneer 31G96’) were planted in mid spring season, 3.8 cm deep in a clay loam soil having 2% organic matter and a pH of 6.6. Plots were 6.1 m long by 3.0 m wide with rows spaced 76 cm apart. Seeds were spaced 15 cm apart within the rows. The field was managed using conventional tillage practices. […] A few of the weed species could not be evaluated at every timing. […] Results are the means of the three replicates.

[2] = test system: corn (ZEAMD); assay: Test 1 field trial, preemergence; format: in vivo, Zea mays ssp. indentata; conditions: g a.i./ha: Atrazine 1680, S-Metolachlor 1870
Source text: (§2) Corn seeds (hybrid ‘Pioneer 34N43’) were planted in mid spring season, 3.8 cm deep in a silt loam soil having 4.6% organic matter and a pH of 6. Plots were 10.7 m long by 1.5 m wide with rows spaced 76 cm apart. Seeds were spaced 18 cm apart within the rows. The field was managed using conventional tillage practices. […] Results are summarized in Table 1 and are the means of the three replicates. […] Colby's Equation (Colby, S. R. “Calculating Synergistic and Antagonistic Responses of Herbicide Combinations,” Weeds, 15(1), pp 20-22 (1967)) calculates the expected additive effect of herbicidal mixtures, and for two active ingredients is of the form:
(§3) Pa+b=Pa+Pb−(PaPb/100) • wherein Pa+b is the percentage effect of the mixture expected from additive contribution of the individual components, • Pa is the observed percentage effect of the first active ingredient at the same use rate as in the mixture, and • Pb is the observed percentage effect of the second active ingredient at the same use rate as in the mixture.

[3] = test system: southern sandbur (CCHEC); assay: Test 11 field trial, preemergence; format: in vivo, Cenchrus echinatus; set-up: scale not given here; conditions: atrazine 1500 or metolachlor 2500 g a.i./ha alone
Source text: Corn seeds (hybrid ‘Pioneer 3041’) were planted in mid spring season, 5 cm deep in a clay soil having 2.6% organic matter and a pH of 5.6. Plots were 8 m long by 1.5 m wide with rows spaced 80 cm apart. Seeds were spaced 15 cm apart within the rows. The field was managed using conventional tillage practices. […] Treatments consisted of Compound 2 or
Goosegrass was not evaluated 16 or 91 days after application.

[4] = test system: jimsonweed (DATST); assay: Test 8 field trial, preemergence; format: in vivo, Datura stramonium; conditions: g a.i./ha: Cpd 2 100, Atrazine 1680, S-Metolachlor 1870
Source text: as §1

[5] = test system: common waterhemp (AMATA); assay: Test 10 field trial, preemergence; format: in vivo, Amaranthus tamariscinus; conditions: 28 DAA; g a.i./ha: Cpd 2 100, Atrazine 1680, S-Metolachlor 1870
Source text: (§4) Corn seeds (hybrid ‘Pioneer 33P65 RR’) were planted in mid spring season, 2.5 cm deep in a silt loam soil. Plots were 9.1 m long by 3.0 m wide with rows spaced 76 cm apart. The field was managed using conventional tillage practices. […] Results are the means of the three replicates.

[6] = test system: yellow foxtail (SETLU); assay: Test 1 field trial, preemergence; format: in vivo, Setaria glauca; conditions: 56 DAA; g a.i./ha: Atrazine 1680; S-Metolachlor 1870
Source text: as §2, §3

[7] = test system: common lambsquarters (CHEAL); assay: Test 5 field trial, postemergence; format: in vivo, Chenopodium album; conditions: atrazine 1120, glufosinate 470 or glyphosate 1120 g a.i./ha alone
[8] = test system: corn (ZEAMD); assay: Test 5 field trial, postemergence; format: in vivo, Zea mays ssp. indentata; conditions: atrazine 1120, glufosinate 470 or glyphosate 1120 g a.i./ha alone
[9] = test system: corn (ZEAMD); assay: Test 8 field trial, preemergence; format: in vivo, Zea mays ssp. indentata; conditions: g a.i./ha: Cpd 2 100, Atrazine 1680, S-Metolachlor 1870
Source text: as §1

[10] = test system: velvetleaf (ABUTH); assay: Test 8 field trial, preemergence; format: in vivo, Abutilon theophrasti; conditions: g a.i./ha: Cpd 2 100, Atrazine 1680, S-Metolachlor 1870
Source text: as §1

[11] = test system: velvetleaf (ABUTH); assay: Test 10 field trial, preemergence; format: in vivo, Abutilon theophrasti; conditions: 28 DAA; g a.i./ha: Cpd 2 100, Atrazine 1680, S-Metolachlor 1870
Source text: as §4

[12] = test system: giant foxtail (SETFA); assay: Test 6 field trial, postemergence; format: in vivo, Setaria faberi; conditions: 1120 g a.i./ha
[13] = test system: common cocklebur (XANST); assay: Test 10 field trial, preemergence; format: in vivo, Xanthium strumarium ssp. strumarium; conditions: 28 DAA; g a.i./ha: Cpd 2 100, Atrazine 1680, S-Metolachlor 1870
Source text: as §4

[14] = test system: common ragweed (AMBEL); assay: Test 10 field trial, preemergence; format: in vivo, Ambrosia artemisiifolia; conditions: 28 DAA; g a.i./ha: Cpd 2 100, Atrazine 1680, S-Metolachlor 1870
Source text: as §4

[15] = test system: velvetleaf (ABUTH); assay: Test 5 field trial, postemergence; format: in vivo, Abutilon theophrasti; conditions: atrazine 1120, glufosinate 470 or glyphosate 1120 g a.i./ha alone

Structure (SMILES): CCNc1nc(Cl)nc(NC(C)C)n1 [Atrazine, atrazine, reference compound]
- POLPY Obs ([1]; 29 DAA, g a.i./ha: Cpd 2 100, Atrazine 1680, S-Metolachlor 1870): 100%
- POLPY Obs ([1]; 56 DAA, g a.i./ha: Cpd 2 100, Atrazine 1680): 100%
- ZEAMD Obs ([2]; 28 DAA): 0
- ZEAMD Obs ([2]; 56 DAA): 0
- CCHEC Obs ([3]; 16 DAA): 60
- CCHEC Obs ([3]; 30 DAA): 40
- CCHEC Obs ([3]; 44 DAA): 40
- CCHEC Obs ([3]; 62 DAA): 0
- CCHEC Obs ([3]; 91 DAA): 0
- DATST Obs ([4]; 19 DAA): 53%
- DATST Obs ([4]; 29 DAA): 100%
- DATST Obs ([4]; 56 DAA): 100%
- AMATA Obs [5]: 83%
- SETLU Obs [6]: 0
- CHEAL Obs ([7]; 16 DAA): 79%
- CHEAL Obs ([7]; 31 DAA): 70%
- ZEAMD Obs ([8]; 16 DAA): 0%
- ZEAMD Obs ([8]; 31 DAA): 0%
- ZEAMD Obs ([9]; 19 DAA): 5%
- ZEAMD Obs ([9]; 29 DAA): 2%
- ZEAMD Obs ([9]; 56 DAA): 3%
- ABUTH Obs ([10]; 19 DAA): 87%
- ABUTH Obs ([10]; 29 DAA): 99%
- ABUTH Obs ([10]; 56 DAA): 98%
- ABUTH Obs [11]: 55%
- SETFA Obs ([12]; 14 DAA): 0%
- SETFA Obs ([12]; 28 DAA): 0%
- XANST Obs [13]: 40%
- AMBEL Obs [14]: 95%
- ABUTH Obs ([15]; 16 DAA): 40%
- ABUTH Obs ([15]; 31 DAA): 13%
